Test results reported in patent US5364615A (priority 1992, dated 1994).
“And” between values parts separate entries of the source, which are not always exact repeats. Equal entries are not always repeated. “Also recorded” adds a separate entry of the source. Where two headings read alike, the source gives them in different places.

Tests used:
Pneumocystis carinii [1] = assay type: in vivo, human
Pneumocystis carinii [2] = assay: Randomized clinical trial of PCP prophylaxis (Example 8); assay type: in vivo, human; conditions: for Relative Hazard of PCP: Cox regression / No PCP (participants) / PCP (participants): all strata; for Relative Hazard of PCP: Cox regression: confirmed PCP on study drug; for No PCP (participants) / PCP (participants): eligible
[3] = intravenous 4 mg/Kg, 18-24 h, per patient, 4 mg/kg
[4] = 13 patients treated successfully
[5] = PCP within 60 days, 300 mg, p .004 (30 vs 300 mg)
[6] = confirmed PCP within 60 days, 30 mg
[7] = confirmed PCP within 60 days, 150 mg

## N=C(N)c1ccc(OCCCCCOc2ccc(C(=N)N)cc2)cc1 [pentamidine, p,p'-(pentamethylenedioxy)dibenzamidine]
18-24 h
  BAL sediment concentration, aerosol vs intravenous: 10-100 fold
  mean BAL supernatant (aerosol) vs BAL sediment (intravenous), factor: more than 2
Aerosol 300 mg, 18-24 h
  BAL sediment concentration, Mean ± SEM: 705 ± 242 ng/mL
  BAL supernatant concentration, Mean ± SEM: 23.2 ± 7.75 ng/mL
After aerosol administration
  systemic absorption: Little or no systemic absorption was detectable
Intravenous 4 mg/Kg, 18-24 h
  BAL sediment concentration, Mean ± SEM: 9.34 ± 1.74 ng/mL
  BAL supernatant concentration, Mean ± SEM: 2.64 ± 0.73 ng/mL
[3]
  BAL sediment concentration: 12.8 ng/mL and 6.89 ng/mL and 8.35 ng/mL
  BAL supernatant concentration: 1.48 ng/mL and 2.44 ng/mL and 4.0 ng/mL
Patients infected with P. carinii, either intravenous pentamidine or TMP-SMX
  response to standard therapy: All patients infected with P. carinii responded to standard therapy
Pneumocystis carinii [1]; 13 patients followed 2-4 months
  relapse: No patient presented evidence of relapse
Pneumocystis carinii [1]; [4]
  arterial oxygenation and vital capacity: Eleven of the 13 patients showed improvements of their arterial oxygenation and vital capacity
  dyspnea, respiratory rate and fever: marked reduction in dyspnea, respiratory rate and fever
  radiographic improvement: 4 had radiographic improvement beginning by the second week of therapy and Five patients showed worsened radiographic infiltrates at one week with subsequent improvement and remaining 4 patients had worsened radiographic infiltrates or no improvement for the first two weeks of therapy, then improvement
Pneumocystis carinii [1]; 95% confidence limits, 58% to 98%
  overall efficacy rate: 87%
Pneumocystis carinii [1]; baseline
  Pre therapy DLCO: 64.9 percent predicted
  Pre therapy PaO2: 67.9 torr
  Pre therapy Vital Capacity: 50.8 percent predicted
Pneumocystis carinii [1]; human, in vivo
  subjective and objective improvement: Thirteen of 15 patients had subjective and objective improvement
  time of clinical improvement: Ten patients had clinical improvement in the first week of therapy, and 3 patients during the second week of therapy
Pneumocystis carinii [1]; n = 15
  Successful Treatment W/ Change, %: 93%
  Successful Treatment w/o Change, %: 86%
Pneumocystis carinii [1]; one patient with concomitant tuberculosis therapy, changed to TMP-SMX on day 7
  treatment failure / death: died of progressive respiratory failure
Pneumocystis carinii [1]; post therapy
  Post therapy DLCO: 61.7 percent predicted
  Post therapy PaO2: 80.1 torr
  Post therapy Vital Capacity: 61.8 percent predicted
Pneumocystis carinii [2]; 30 mg every two weeks
  Completed without Endpoint: 26
  Died, Due to PCP: 5
  Died, Not due to PCP: 51
  Extrapulmonary Pneumocystis: 0
  PCP, Confirmed: 32
  PCP, Unconfirmed: 9
Pneumocystis carinii [2]; 150 mg every two weeks
  Completed without Endpoint: 38
  Died, Due to PCP: 6
  Died, Not due to PCP: 47
  Extrapulmonary Pneumocystis: 1
  PCP, Confirmed: 28
  PCP, Unconfirmed: 4
Pneumocystis carinii [2]; 300 mg every four weeks
  Completed without Endpoint: 42
  Died, Due to PCP: 5
  Died, Not due to PCP: 46
  Extrapulmonary Pneumocystis: 0
  PCP, Confirmed: 16
  PCP, Unconfirmed: 12
Pneumocystis carinii [2]; 16 of 101 PCP episodes
  case fatality rate from first acute PCP episode: 15.8%
Pneumocystis carinii [2]; 19 of 160
  share of all deaths due to PCP: 11.9%
Pneumocystis carinii [2]; 30, 150, 300 mg
  all cause mortality between treatment arms: did not significantly differ between the three treatment arms
Pneumocystis carinii [2]; Kaplan-Meier, 300 mg every 4 weeks vs 30 mg every 2 weeks, 150 mg vs 30 mg
  time to PCP occurrence, dose comparison: 300 mg of aerosolized pentamidine given every 4 weeks was consistently superior to 30 mg of aerosolized pentamidine given every 2 weeks and The 150 mg arm was superior to the 30 mg arm but less so than the 300 mg arm
Pneumocystis carinii [2]; Kaposi's sarcoma stratum
  all cause mortality: 36%
Pneumocystis carinii [2]; all doses
  deaths due to PCP: Nineteen deaths occurred due to PCP
Pneumocystis carinii [2]; all doses, 408 participants
  deaths: 160
Pneumocystis carinii [2]; all doses, KS stratum
  PCP episodes: 8
Pneumocystis carinii [2]; all doses, Other HIV stratum
  PCP episodes: 15
Pneumocystis carinii [2]; all doses, total and prior PCP stratum
  PCP episodes: One hundred-one PCP episodes; also recorded: Seventy-eight occurred in the prior PCP stratum
Pneumocystis carinii [2]; 30 vs 300
  Relative Hazard of PCP: Cox regression: 3.9 and 3.86
Pneumocystis carinii [2]; 30 vs. 150
  Relative Hazard of PCP: Cox regression: 1.7 and 1.71
Pneumocystis carinii [2]; PCP within 60 days, 30 mg
  No PCP (participants): 89
  PCP (participants): 28
Pneumocystis carinii [2]; PCP within 60 days, 150 mg
  No PCP (participants): 102
  PCP (participants): 18
Pneumocystis carinii [2]; [5]
  No PCP (participants): 113
  PCP (participants): 16
Pneumocystis carinii [2]; [6]
  No PCP (participants): 95
  PCP (participants): 22
Pneumocystis carinii [2]; [7]
  No PCP (participants): 104
  PCP (participants): 16
Pneumocystis carinii [2]; confirmed PCP within 60 days, 300 mg, p .0008 (30 vs 300 mg)
  No PCP (participants): 121
